Test system: hNPC
Experiment: Immunofluorescence staining and high-content cell analysis of differentiation markers in hNPCs differentiated after 24 hour neurotoxin treatment
Type: cell-based, human
Conditions: for level of GFAP (glial marker): hNPC treated 24 hours
Text: In an example, high-content cell analysis from cells grown in each well in a 96-well plate was sufficient to detect multiple markers via antibody staining and to be normalized to the DAPI signal, a common baseline measure of DNA content. […] In this example, hNPC are indicated by NESTIN (NES) and SRY-Box 2 (SOX2). Glial Fibrillary Acidic Protein (GFAP) is used as a marker of glial cells (both astrocytes and radial glia), and the neuron-specific class III β-tubulin (TUJ1) is used to indicate neurons. Expression of both GFAP and TUJ1 increased at 21 days and 50 days following differentiation, while both SOX2 and NES decreased at 21 days. Levels of SOX2 expression returned to baseline following 50 days.
A broad range of doses for each toxin was selected to determine the dose response and capture the full range to which a developing human brain may be exposed. Cultured hNPC's were treated for 24 hours to avoid complications associated with non-specific toxicity that may occur with chronic treatment, and because we were interested in whether early, acute exposure produces long-term effects detectable in our assay.

Question: Which “level of GFAP (glial marker)” value (21D time point, low to moderate doses) does the source give for `CC(C)(c1ccc(O)cc1)c1ccc(O)cc1` [BPA, bisphenol A] here?
Answer: increase

Question: What about the “level of GFAP (glial marker)” value (50D time point, low to moderate doses) of the same molecule?
Answer: increase

Question: How did the “level of GFAP (glial marker)” value (across differentiation time points, compared with MAM and BPA) turn out when `CCCC(CCC)C(=O)O` [VPA, valproic acid] was run?
Answer: more modest effects

Question: Which results are given for `C[N+]([O-])=NCO` [MAM, methylazoxymethanol]?
Answer: level of GFAP (glial marker) (21D time point, increasing doses, vs DMSO control): striking increase; level of GFAP (glial marker) (50D time point, vs DMSO control): general decrease; hNPC markers (NESTIN and SOX2) (24 hours, across doses): clear dose-dependent increase; hNPC-GLIA population (markers of hNPC and glial cells) (21 days, across increasing doses): significant increase; neuronal population (NEURON) (21 days, as a function of increasing dose): striking decrease; hNPC-GLIA population (markers of hNPC and glial cells) (50 days): decreased; neuronal population (NEURON) (50 days): increased

From patent US11124847B1, “Systems and methods for assessing perturbations in cellular differentiation using reporter cell lines” (priority 2017, dated 2021)
